# Experimental data reported in US8124793B2, “Derivatives of ethylene methanedisulfonate as cancer chemotherapeutic agents” (priority 2007, dated 2012).
# Tests used:
# [1] = tested on: HOP-62; test: NCI screen, growth of human tumor cells: Non-Small Cell Lung HOP-62; assay type: cell-based; conditions: HOP-62 (Non-Small Cell Lung), 10^−4 molar
# Outline: (§1)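 Growth of human tumor cells, expressed as percent, was determined in the NCI screen. Test data list the cancer type and the molar concentration applied.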
# [2] = tested on: U-251; test: NCI screen, growth of human tumor cells: CNS Cancer U-251; assay type: cell-based; conditions: U-251 (CNS Cancer), 10^−4 molar
# Procedure: (§2) In the NCI screening process, each compound was tested and described by a minimum of 60 data points. The test data include, but are not limited to the type of cancer, the molar concentration used in the screen, and the percent growth of the cancer. In some cases, NMR and elemental analysis were used for structural assignment.
# [3] = tested on: UACC-62; test: NCI screen, growth of human tumor cells: Melanoma UACC-62; assay type: cell-based; conditions: UACC-62 (Melanoma), 10^−4 molar
# Outline: as §1
# [4] = tested on: HCT-15; test: NCI screen, growth of human tumor cells: Colon Cancer HCT-15; assay type: cell-based; conditions: HCT-15 (Colon Cancer), 10^−4 molar
# Outline: as §1
# [5] = tested on: DU-145; test: NCI screen, growth of human tumor cells: Prostate Cancer DU-145; assay type: cell-based
# Procedure: as §2
# [6] = tested on: SK-MEL-2; test: NCI screen, growth of human tumor cells: Melanoma SK-MEL-2; assay type: cell-based
# Procedure: as §2
# [7] = tested on: SK-MEL-5; test: NCI screen, growth of human tumor cells: Melanoma SK-MEL-5; assay type: cell-based
# Outline: as §1
# [8] = tested on: HS 578T; test: NCI screen, growth of human tumor cells: Breast Cancer HS 578T; assay type: cell-based; conditions: HS 578T (Breast Cancer), 10^−4 molar
# Procedure: as §2
# [9] = tested on: KM12; test: NCI screen, growth of human tumor cells: Colon Cancer KM12; assay type: cell-based
# Procedure: as §2
# [10] = tested on: MCF7/ADR-RES; test: NCI screen, growth of human tumor cells: Breast Cancer MCF7/ADR-RES; assay type: cell-based; conditions: MCF7/ADR-RES (Breast Cancer), 10^−4 molar
# Procedure: as §2
# [11] = tested on: OVCAR-5; test: NCI screen, growth of human tumor cells: Ovarian Cancer OVCAR-5; assay type: cell-based
# Procedure: as §2
# [12] = tested on: SN12C; test: NCI screen, growth of human tumor cells: Renal Cancer SN12C; assay type: cell-based; conditions: SN12C
# Procedure: as §2
# [13] = tested on: NCI-H23; test: NCI screen, growth of human tumor cells: Non-Small Cell Lung NCI-H23; assay type: cell-based; conditions: NCI-H23, 10^−4 molar
# Procedure: as §2
# [14] = tested on: SF-295; test: NCI screen, growth of human tumor cells: CNS Cancer SF-295; assay type: cell-based; conditions: SF-295 (CNS Cancer), 10^−4 molar
# Procedure: as §2
# [15] = tested on: MDA-MB-435; test: NCI screen, growth of human tumor cells: Breast Cancer MDA-MB-435; assay type: cell-based; conditions: MDA-MB-435, 10^−4 molar
# Procedure: as §2
# [16] = tested on: COLO205; test: NCI screen, growth of human tumor cells: Colon Cancer COLO205; assay type: cell-based; conditions: COLO205 (Colon Cancer), 10^−4 molar
# Procedure: as §2
# [17] = tested on: ACHN; test: NCI screen, growth of human tumor cells: Renal Cancer ACHN; assay type: cell-based; conditions: ACHN, 10^−4 molar
# Outline: as §1
# [18] = tested on: OVCAR-3; test: NCI screen, growth of human tumor cells: Ovarian Cancer OVCAR-3; assay type: cell-based; conditions: OVCAR-3 (Ovarian Cancer), 10^−4 molar
# Outline: as §1
# [19] = tested on: RXF-393; test: NCI screen, growth of human tumor cells: Renal Cancer RXF-393; assay type: cell-based; conditions: RXF-393 (Renal Cancer), 10^−4 molar
# Procedure: as §2
# [20] = tested on: M14; test: NCI screen, growth of human tumor cells: Melanoma M14; assay type: cell-based; conditions: M14 (Melanoma), 10^−4 molar
# Procedure: as §2
# [21] = tested on: AS49/ATCC; test: NCI screen, growth of human tumor cells: Non-Small Cell Lung AS49/ATCC; assay type: cell-based; conditions: AS49/ATCC (Non-Small Cell Lung), 10^−4 molar
# Procedure: as §2
# [22] = tested on: NCI-H460; test: NCI screen, growth of human tumor cells: Non-Small Cell Lung NCI-H460; assay type: cell-based; conditions: NCI-H460 (Non-Small Cell Lung), 10^−4 molar
# Outline: as §1
# [23] = tested on: SF-539; test: NCI screen, growth of human tumor cells: CNS Cancer SF-539; assay type: cell-based; conditions: SF-539, 10^−4 molar
# Outline: as §1
# [24] = tested on: SF-268; test: NCI screen, growth of human tumor cells: CNS Cancer SF-268; assay type: cell-based; conditions: SF-268 (CNS Cancer), 10^−4 molar
# Procedure: as §2
# [25] = tested on: RPMI-8226; test: NCI screen, growth of human tumor cells: Leukemia RPMI-8226; assay type: cell-based; conditions: RPMI-8226 (Leukemia), 10^−4 molar
# Procedure: as §2
# [26] = tested on: HCT-116; test: NCI screen, growth of human tumor cells: Colon Cancer HCT-116; assay type: cell-based; conditions: HCT-116 (Colon Cancer), 10^−4 molar
# Procedure: as §2
# [27] = tested on: UO-31; test: NCI screen, growth of human tumor cells: Renal Cancer UO-31; assay type: cell-based; conditions: UO-31 (Renal Cancer), 10^−4 molar
# Procedure: as §2
# [28] = tested on: SR; test: NCI screen, growth of human tumor cells: Leukemia SR; assay type: cell-based; conditions: SR (Leukemia), 10^−4 molar
# Outline: as §1
# [29] = tested on: HL-60 (TB); test: NCI screen, growth of human tumor cells: Leukemia HL-60 (TB); assay type: cell-based; conditions: HL-60 (TB) (Leukemia), 10^−4 molar
# Procedure: as §2
# [30] = tested on: OVCAR-4; test: NCI screen, growth of human tumor cells: Ovarian Cancer OVCAR-4; assay type: cell-based; conditions: OVCAR-4 (Ovarian Cancer), 10^−4 molar
# Procedure: as §2
# [31] = tested on: K562; test: NCI screen, growth of human tumor cells: Leukemia K562; assay type: cell-based; conditions: K562 (Leukemia), 10^−4 molar
# Outline: as §1
# [32] = tested on: SNB-75; test: NCI screen, growth of human tumor cells: CNS Cancer SNB-75; assay type: cell-based; conditions: SNB-75 (CNS Cancer), 10^−4 molar
# Procedure: as §2
# [33] = tested on: SK-MEL-28; test: NCI screen, growth of human tumor cells: Melanoma SK-MEL-28; assay type: cell-based; conditions: SK-MEL-28 (Melanoma), 10^−4 molar
# Procedure: as §2
# [34] = tested on: human cancer cells; test: NCI screen summary over the cancers tested (negative growth of human cancer cells); assay type: cell-based; conditions: cancers with negative growth / cancers tested
# Procedure: as §2
# The derivatives in the tables are grouped using the same category as in the tables 1-6.
# [35] = tested on: BT-549; test: NCI screen, growth of human tumor cells: Breast Cancer BT-549; assay type: cell-based; conditions: BT-549 (Breast Cancer), 10^−4 molar
# Procedure: as §2
# [36] = tested on: HOP-18; test: NCI screen, growth of human tumor cells: Non-Small Cell Lung HOP-18; assay type: cell-based
# Procedure: as §2
# [37] = tested on: NCI-H226; test: NCI screen, growth of human tumor cells: Non-Small Cell Lung NCI-H226; assay type: cell-based
# Procedure: as §2
# [38] = tested on: EKVX; test: NCI screen, growth of human tumor cells: Non-Small Cell Lung EKVX; assay type: cell-based; conditions: EKVX
# Procedure: as §2
compound,measurement,setting,value
"CC=CC(=O)C1(C2=C(Cl)C(=O)c3ccccc3C2=O)S(=O)(=O)OCCOS1(=O)=O [NSC 731264, ethylene crotonoyl-[3-chloro-1,4-naptho-2-quinolyl]-1,1-methanedisulfonate]",percent of growth of human tumor cells,[1],−56%
same,percent of growth of human tumor cells,[2],−5%
same,percent of growth of human tumor cells,[3],−16%
same,percent of growth of human tumor cells,[4],−59%
same,% Growth,"[5]; DV-145, 10^−4 molar",−68%
same,% Growth,"[5]; DV-145, 10^−5 molar",−96%
same,% Growth,"[5]; DV-145, 10^−6 molar",38%
same,% Growth,"[6]; SK-MEL-2, 10^−4 molar",27%
same,% Growth,"[6]; SK-MEL-2, 10^−5 molar",49%
same,% Growth,"[7]; SK-MEL-5, 10^−4 molar",−53%
same,% Growth,"[7]; SK-MEL-5, 10^−5 molar",28%
same,percent of growth of human tumor cells,[8],−12%
same,% Growth,"[9]; KM12, 10^−4 molar",−68%
same,% Growth,"[9]; KM12, 10^−5 molar",−75%
same,% Growth,"[9]; KM12, 10^−6 molar",66%
same,percent of growth of human tumor cells,[10],20%
same,% Growth,"[11]; OVCAR-5, 10^−4 molar",−49%
same,% Growth,"[11]; OVCAR-5, 10^−5 molar",51%
same,% Growth,"[11]; OVCAR-5, 10^−6 molar",39%
same,% Growth,"[11]; OVCAR-5, 10^−7 molar",46%
same,% Growth,"[11]; OVCAR-5, 10^−8 molar",52%
same,% Growth,[12]; 10^−4 molar,−67%
same,% Growth,[12]; 10^−5 molar,−99%
same,% Growth,[12]; 10^−6 molar,−4%
same,% Growth,[13],−72%
same,percent of growth of human tumor cells,[14],−57%
same,% Growth,[15],−73%
same,percent of growth of human tumor cells,[16],30%
same,% Growth,[17],−82%
same,percent of growth of human tumor cells,[18],5%
same,percent of growth of human tumor cells,[19],−50%
same,percent of growth of human tumor cells,[20],−6%
same,percent of growth of human tumor cells,[21],−36%
same,percent of growth of human tumor cells,[22],10%
same,% Growth,[23],−73%
same,percent of growth of human tumor cells,[24],7%
same,percent of growth of human tumor cells,[25],−18%
same,percent of growth of human tumor cells,[26],26%
same,percent of growth of human tumor cells,[27],12%
same,percent of growth of human tumor cells,[28],7%
same,percent of growth of human tumor cells,[29],17%
same,percent of growth of human tumor cells,[30],19%
same,percent of growth of human tumor cells,[31],19%
same,percent of growth of human tumor cells,[32],−33%
same,percent of growth of human tumor cells,[33],−59%
same,Percentage of cancers showing negative growth cancers tested,[34]; 10^−4 M conc.,65%
same,Percentage of cancers showing negative growth cancers tested,[34]; 10^−5 M conc.,50%
same,Percentage of cancers showing negative growth cancers tested,[34]; 10^−6 M conc.,25%
same,percent of growth of human tumor cells,[35],−52%
"O=S1(=O)OCCOS(=O)(=O)C1(Br)Br [NSC 648304, ethylene dibromomethanedisulfonate]",melting point,,214 to 220 °C
same,% Growth,"[36]; HOP-18, 10^−4 molar",53%
same,% Growth,"[36]; HOP-18, 10^−5 molar",75%
same,% Growth,"[36]; HOP-18, 10^−6 molar",52%
same,% Growth,"[36]; HOP-18, 10^−7 molar",14%
same,% Growth,"[36]; HOP-18, 10^−8 molar",42%
same,% Growth,"[37]; NCI-H226, 10^−4 molar",−1%
same,% Growth,"[37]; NCI-H226, 10^−5 molar",49%
same,% Growth,"[37]; NCI-H226, 10^−6 molar",47%
same,% Growth,"[37]; NCI-H226, 10^−7 molar",54%
same,% Growth,"[37]; NCI-H226, 10^−8 molar",62%
same,% Growth,[38]; 10^−4 molar,51%
same,% Growth,[38]; 10^−5 molar,57%
same,% Growth,[38]; 10^−6 molar,58%
same,% Growth,[38]; 10^−7 molar,62%
same,% Growth,[38]; 10^−8 molar,58%
same,Percentage of cancers showing negative growth cancers tested,[34]; 10^−4 M conc.,10^−4 M conc. = 1/3 = 33%
"O=S1(=O)OCCOS(=O)(=O)C1Cl [MWC 91-6, ethylene chloromethanedisulfonate]",melting point,,85 to 88 °C
"O=S1(=O)OCCOS(=O)(=O)C1Br [NSC 648305, ethylene bromomethanedisulfonate]",melting point,,128 to 134 °C
same,% Growth,"[36]; HOP-18, 10^−4 molar",−61%
same,% Growth,"[36]; HOP-18, 10^−5 molar",68%
same,% Growth,"[36]; HOP-18, 10^−6 molar",49%
same,% Growth,"[36]; HOP-18, 10^−7 molar",63%
same,% Growth,"[36]; HOP-18, 10^−8 molar",63%
same,% Growth,"[37]; NCI-H226, 10^−4 molar",7%
same,% Growth,"[37]; NCI-H226, 10^−5 molar",16%
same,% Growth,"[37]; NCI-H226, 10^−6 molar",20%
same,% Growth,"[37]; NCI-H226, 10^−7 molar",21%
same,% Growth,"[37]; NCI-H226, 10^−8 molar",43%
same,% Growth,[38]; 10^−4 molar,51%
same,% Growth,[38]; 10^−5 molar,56%
same,% Growth,[38]; 10^−6 molar,59%
same,% Growth,[38]; 10^−7 molar,60%
same,% Growth,[38]; 10^−8 molar,65%
same,Percentage of cancers showing negative growth cancers tested,[34]; 10^−4 M conc.,10^−4 M conc. = 1/3 = 33%
